Laboratory results: patent US20260226493A1, “HERBICIDE RESISTANT PLANTS” (SYNGENTA CROP PROTECTION AG, priority 2023, published 2026)

What was measured:
[1] = system: D4539 (Escherichia coli MTP BioA) containing tobacco plants; assay: Visual herbicide damage score on transgenic tobacco D4539 (pBin TMV MTP EcBioA); assay type: in vivo; conditions: 600 gai/ha
From the text: In order to determine if the overexpressed gene detailed in Example 3 confers resistance to BIO3-BIO1 inhibiting compounds when expressed in plants, GM tobacco lines were produced and tested with BIO3-BIO1 inhibiting compounds. Transgenic tobacco plants expressing the Escherichia coli BioA gene with (SEQ ID NO:203) and without a mitochondrial signal peptide (SEQ ID NO: 202).
Populations of transgenic tobacco comprising 20-30 transgenic events per plant transformation constructs were generated as described in Example 1. These lines were clonally propagated and 1 clone per event was sprayed with 600 g ai/ha compound L or A+0.2% Genapol X080 with a spray volume of 200 L/Ha (“g ai/ha” refers to grams of active compound per hectare).
[…] A score of 0 indicates no visible damage or stunting whereas a score of 100 indicates a complete death of the plant. 20 transgenic events (i.e. individual transgenic plants) from each GM tobacco line were transplanted to soil 1 week prior to spraying with BIO3-BIO1 inhibiting compounds. WT tobacco was included as a control.

[2] = biological target: T1, Arabidopsis thaliana BioDA variant enzymes (Arabidopsis thaliana, UniProt B0F481); assay: biochemical; conditions: WT Arabidopsis thaliana BioDA (SEQ ID NO 294); read-out: IC50
T1 construct: with the predicted N-terminal mitochondrial transit peptide removed; 6xHis-tag (N); thrombin cleavage site (N); made in house; host or cells: E. coli BL21 (DE3) bioA
Description: (§1) These plasmids were then expressed in E. coli BL21 (DE3) bioA with 50 μg/mL kanamycin and 25 μg/mL chloramphenicol selection. Overnight cultures grown at 37° C. were used to inoculate 8×500 mL AIM in shake flasks at a ratio of 1:100. Cultures were grown at 37° C., 200 rpm for 3.5 hours and then overnight at 20° C. Cells were harvested by centrifugation for 30 minutes at 10 000 g. Cells were stored at −80° C. until extraction. 30 g of cell pellet from was thawed in 120 mL of IMAC buffer A (20 mM HEPES pH7.5, 25 mM imidazole, 500 mM sodium chloride, 0.15 mM pyridoxal phosphate, 0.5 mM TCEP, 1× complete Protease Inhibitor Tablet (Roche)). The resuspension was passed through a cell disrupter at 18 000 PSI and centrifuged at 50 000 g for 25 minutes at 4° C. The His-tagged BIO3-BIO1 protein was purified from the extract supernatant on an AKTA avant chromatography system (Cytiva) using a HisTrap FF column and eluted in IMAC buffer B ((20 mM HEPES pH7.5, 500 mM imidazole, 500 mM sodium chloride, 0.15 mM pyridoxal phosphate, 0.5 mM TCEP) followed by SEC using a HiLoad 26/60 Superdex200 column in SEC buffer (25 mM HEPES pH7.5, 150 mM sodium chloride, 0.15 mM pyridoxal phosphate, 0.5 mM TCEP). Protein concentration was measured and calculated using the absorbance at 280 nm. Extracts were diluted 1 in 4 and 10 uL was analysed by SDS PAGE.
(§2) To measure BIO3-BIO1 mutant enzyme activity in the presence of herbicide, herbicides were incubated with 20 μL of enzyme mix (100 mM EPPS pH 8.6, 0.1 mM pyridoxal phosphate, 0.1 mg/mL BSA, 50 nM BIO3-BIO1 enzyme) for 10 minutes at 20° C. in a well of a 96-well half-area black plate, followed by the addition of 20 μL of substrate mix (final concentration of 100 mM EPPS pH 8.6, 0.1 mM pyridoxal phosphate, 0.1 mg/mL BSA, 100 μM spermidine, 20 μM KAPA, 100 mM NaCO3) and further incubation for 75 minutes at 20° C. The reaction was terminated by the addition of 50 μL of derivatisation mix (final concentration of 250 mM borate NaOH pH 9.4, 3.6 mM o-phthalaldehyde, 7 mM β-mercaptoethanol, 17% (v/v) ethanol, 3.6% (v/v) methanol). The fluorescent product produced by the reaction of DAPA with o-phthalaldehyde and 7 mM β-mercaptoethanol was measured at 470 nm after excitation at 410 nm.
(§3) For IC50 calculations, appropriate dose responses of compounds L, M, B, K and G were used. Calculated percentage inhibitions were then input into GraphPad Prism 7 and IC50s calculated using the non-linear regression (vs. normalised response) equation.

[3] = biological target: T2, Arabidopsis thaliana BioDA variant enzymes (Arabidopsis thaliana, UniProt B0F481, C388D); assay: biochemical
T2 construct: with the predicted N-terminal mitochondrial transit peptide removed; 6xHis-tag (N); thrombin cleavage site (N); made in house; host or cells: E. coli BL21 (DE3) bioA
Description: as §1, §2, §3

T2 sequence (B0F481 24-833 C388D): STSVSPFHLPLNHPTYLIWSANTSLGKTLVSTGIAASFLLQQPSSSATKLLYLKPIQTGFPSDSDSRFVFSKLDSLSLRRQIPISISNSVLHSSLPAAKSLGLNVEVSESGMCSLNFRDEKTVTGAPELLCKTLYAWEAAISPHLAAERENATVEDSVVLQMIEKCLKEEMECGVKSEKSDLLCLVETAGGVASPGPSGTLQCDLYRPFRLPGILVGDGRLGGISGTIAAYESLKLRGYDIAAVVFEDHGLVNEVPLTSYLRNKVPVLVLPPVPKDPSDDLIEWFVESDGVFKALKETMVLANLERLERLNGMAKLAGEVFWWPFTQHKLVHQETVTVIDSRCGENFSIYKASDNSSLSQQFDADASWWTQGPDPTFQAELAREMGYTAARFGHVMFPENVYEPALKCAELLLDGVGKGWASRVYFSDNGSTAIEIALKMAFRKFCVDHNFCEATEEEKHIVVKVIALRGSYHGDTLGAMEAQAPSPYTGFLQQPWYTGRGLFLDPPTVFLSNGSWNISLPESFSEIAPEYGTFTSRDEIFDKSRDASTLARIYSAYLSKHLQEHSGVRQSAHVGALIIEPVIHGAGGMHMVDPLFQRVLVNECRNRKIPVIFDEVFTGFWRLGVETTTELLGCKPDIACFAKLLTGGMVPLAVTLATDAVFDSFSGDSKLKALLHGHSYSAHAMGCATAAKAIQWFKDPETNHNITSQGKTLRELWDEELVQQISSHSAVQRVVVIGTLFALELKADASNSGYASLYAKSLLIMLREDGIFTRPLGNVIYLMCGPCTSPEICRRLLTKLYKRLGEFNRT

**Q.** With `CCn1c(Cn2ccc(C(F)(F)F)n2)cc(=O)c(C(=O)O)c1-c1ccc(Cl)c(Cl)c1` [Compound L, 2-(3,4-dichlorophenyl)-1-ethyl-4-oxo-6-[[3-(trifluoromethyl)pyrazol-1-yl]methyl]pyridine-3-carboxylic acid] as the compound, how does the “percentage of damage (herbicide damage score)” value (“percentage of damage” for short) ([1]; D4539 event 8385, 7 DAT) read?
**A.** 10%

**Q.** And the “percentage of damage” value ([1]; D4539 event 8385, 14 DAT)?
**A.** 0%

**Q.** And the “percentage of damage” value ([1]; D4539 event 8385, 21 DAT)?
**A.** 0%

**Q.** And the “percentage of damage” value ([1]; D4539 event 8386, 7 DAT)?
**A.** 7%

**Q.** What about the “percentage of damage” value ([1]; D4539 event 8386, 14 DAT) of the same compound?
**A.** 0%

**Q.** And the “percentage of damage” value ([1]; D4539 event 8386, 21 DAT)?
**A.** 0%

**Q.** What about the “percentage of damage” value ([1]; D4539 event 8399, 7 DAT) of the same compound?
**A.** 2%

**Q.** What about the “percentage of damage” value ([1]; D4539 event 8399, 14 DAT) of the same compound?
**A.** 0%

**Q.** And the “percentage of damage” value ([1]; D4539 event 8399, 21 DAT)?
**A.** 0%

**Q.** And the “percentage of damage” value ([1]; D4539 event 8402, 7 DAT)?
**A.** 3%

**Q.** What about the “percentage of damage” value ([1]; D4539 event 8402, 14 DAT) of the same compound?
**A.** 0%

**Q.** What about the “percentage of damage” value ([1]; D4539 event 8402, 21 DAT) of the same compound?
**A.** 0%

**Q.** What about the “percentage of damage” value ([1]; D4539 event 8414, 7 DAT) of the same compound?
**A.** 2%

**Q.** What about the “percentage of damage” value ([1]; D4539 event 8414, 14 DAT) of the same compound?
**A.** 0%

**Q.** What about the “percentage of damage” value ([1]; D4539 event 8414, 21 DAT) of the same compound?
**A.** 0%

**Q.** And the “percentage of damage” value ([1]; D4539 event 8415, 7 DAT)?
**A.** 7%

**Q.** What about the “percentage of damage” value ([1]; D4539 event 8415, 14 DAT) of the same compound?
**A.** 0%

**Q.** What about the “percentage of damage” value ([1]; D4539 event 8415, 21 DAT) of the same compound?
**A.** 0%

**Q.** And the “percentage of damage” value ([1]; D4539 event 8417, 7 DAT)?
**A.** 2%

**Q.** What about the “percentage of damage” value ([1]; D4539 event 8417, 14 DAT) of the same compound?
**A.** 0%

**Q.** And the “percentage of damage” value ([1]; D4539 event 8417, 21 DAT)?
**A.** 20%

**Q.** What about the “percentage of damage” value ([1]; D4539 event 8418, 7 DAT) of the same compound?
**A.** 10%

**Q.** What about the “percentage of damage” value ([1]; D4539 event 8418, 14 DAT) of the same compound?
**A.** 25%

**Q.** And the “percentage of damage” value ([1]; D4539 event 8418, 21 DAT)?
**A.** 60%

**Q.** What about the “percentage of damage” value ([1]; D4539 event 8423, 7 DAT) of the same compound?
**A.** 2%

**Q.** And the “percentage of damage” value ([1]; D4539 event 8423, 14 DAT)?
**A.** 0%

**Q.** What about the “percentage of damage” value ([1]; D4539 event 8423, 21 DAT) of the same compound?
**A.** 0%

**Q.** What about the “percentage of damage” value ([1]; D4539 event 8424, 7 DAT) of the same compound?
**A.** 65%

**Q.** What about the “percentage of damage” value ([1]; D4539 event 8424, 14 DAT) of the same compound?
**A.** 85%

**Q.** And the “percentage of damage” value ([1]; D4539 event 8424, 21 DAT)?
**A.** 90%

**Q.** What about the “percentage of damage” value ([1]; D4539 event 8426, 7 DAT) of the same compound?
**A.** 2%

**Q.** And the “percentage of damage” value ([1]; D4539 event 8426, 14 DAT)?
**A.** 0%

**Q.** What about the “percentage of damage” value ([1]; D4539 event 8426, 21 DAT) of the same compound?
**A.** 0%

**Q.** What about the “percentage of damage” value ([1]; D4539 event 8433, 7 DAT) of the same compound?
**A.** 5%

**Q.** And the “percentage of damage” value ([1]; D4539 event 8433, 14 DAT)?
**A.** 0%

**Q.** What about the “percentage of damage” value ([1]; D4539 event 8433, 21 DAT) of the same compound?
**A.** 0%

**Q.** What about the “percentage of damage” value ([1]; D4539 event 8434, 7 DAT) of the same compound?
**A.** 2%

**Q.** What about the “percentage of damage” value ([1]; D4539 event 8434, 14 DAT) of the same compound?
**A.** 0%

**Q.** What about the “percentage of damage” value ([1]; D4539 event 8434, 21 DAT) of the same compound?
**A.** 35%

**Q.** And the “percentage of damage” value ([1]; D4539 event 8438, 7 DAT)?
**A.** 15%

**Q.** What about the “percentage of damage” value ([1]; D4539 event 8438, 14 DAT) of the same compound?
**A.** 85%

**Q.** And the “percentage of damage” value ([1]; D4539 event 8438, 21 DAT)?
**A.** 95%

**Q.** What about the “percentage of damage” value ([1]; D4539 event 8439, 7 DAT) of the same compound?
**A.** 2%

**Q.** What about the “percentage of damage” value ([1]; D4539 event 8439, 14 DAT) of the same compound?
**A.** 0%

**Q.** What about the “percentage of damage” value ([1]; D4539 event 8439, 21 DAT) of the same compound?
**A.** 0%

**Q.** And the “percentage of damage” value ([1]; D4539 event 8447, 7 DAT)?
**A.** 2%

**Q.** And the “percentage of damage” value ([1]; D4539 event 8447, 14 DAT)?
**A.** 0%

**Q.** What about the “percentage of damage” value ([1]; D4539 event 8447, 21 DAT) of the same compound?
**A.** 0%

**Q.** What about the “percentage of damage” value ([1]; D4539 event 8448, 7 DAT) of the same compound?
**A.** 2%

**Q.** What about the “percentage of damage” value ([1]; D4539 event 8448, 14 DAT) of the same compound?
**A.** 0%

**Q.** What about the “percentage of damage” value ([1]; D4539 event 8448, 21 DAT) of the same compound?
**A.** 0%

**Q.** What about the “percentage of damage” value ([1]; D4539 event 8460, 7 DAT) of the same compound?
**A.** 2%

**Q.** What about the “percentage of damage” value ([1]; D4539 event 8460, 14 DAT) of the same compound?
**A.** 0%

**Q.** What about the “percentage of damage” value ([1]; D4539 event 8460, 21 DAT) of the same compound?
**A.** 0%

**Q.** What about the “percentage of damage” value ([1]; D4539 event 8461, 7 DAT) of the same compound?
**A.** 17%

**Q.** And the “percentage of damage” value ([1]; D4539 event 8461, 14 DAT)?
**A.** 75%

**Q.** And the “percentage of damage” value ([1]; D4539 event 8461, 21 DAT)?
**A.** 90%

**Q.** And the “percentage of damage” value ([1]; D4539 event 8462, 7 DAT)?
**A.** 2%

**Q.** And the “percentage of damage” value ([1]; D4539 event 8462, 14 DAT)?
**A.** 0%

**Q.** And the “percentage of damage” value ([1]; D4539 event 8462, 21 DAT)?
**A.** 3%

**Q.** What about the IC50 [2] of the same compound?
**A.** 0.145 µM

**Q.** And the IC50 [3]?
**A.** 100 µM
